US5780245A, “Polypeptides having a serotonin receptor activity, nucleic acids coding for these polypeptides and uses” (priority 1992, dated 1998)
Read-outs that look alike come from different tables or passages of the source.

T1: truncated (T) 5HT2C receptor (Mus musculus, UniProt Q02152, S167T)
T1 sequence (Q02152 with tags, fused parts or gaps S167T): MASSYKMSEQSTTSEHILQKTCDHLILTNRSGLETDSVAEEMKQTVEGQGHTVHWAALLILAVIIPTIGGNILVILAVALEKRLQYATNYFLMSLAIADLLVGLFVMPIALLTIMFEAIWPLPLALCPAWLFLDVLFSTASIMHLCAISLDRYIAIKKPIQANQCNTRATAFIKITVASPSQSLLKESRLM

T2: 5-HT1C (Homo sapiens, UniProt P28335)
T2 sequence (P28335 33-458): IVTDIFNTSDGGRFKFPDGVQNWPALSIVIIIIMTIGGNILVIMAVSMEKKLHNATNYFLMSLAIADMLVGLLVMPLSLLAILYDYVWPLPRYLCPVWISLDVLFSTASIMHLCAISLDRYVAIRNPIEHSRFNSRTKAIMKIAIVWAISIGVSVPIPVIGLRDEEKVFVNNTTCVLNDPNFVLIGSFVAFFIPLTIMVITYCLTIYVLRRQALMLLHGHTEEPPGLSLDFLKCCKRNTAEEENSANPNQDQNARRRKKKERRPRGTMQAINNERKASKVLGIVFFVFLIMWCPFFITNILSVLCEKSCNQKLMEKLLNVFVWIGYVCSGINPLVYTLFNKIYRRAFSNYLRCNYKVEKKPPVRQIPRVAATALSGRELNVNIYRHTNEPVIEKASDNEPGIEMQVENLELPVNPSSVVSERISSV

B1: truncated protein: receptor having only the first three transmembrane domains, residues 1 to 177 SEQ ID No. 2 plus 14 C-terminal amino acids (protein)
chain: MASSYKMSEQSTTSEHILQKTCDHLILTNRSGLETDSVAEEMKQTVEGQGHTVHWAALLILAVIIPTIGGNILVILAVALEKRLQYATNYFLMSLAIADLLVGLFVMPIALLTIMFEAIWPLPLALCPAWLFLDVLFSTASIMHLCAISLDRYIAIKKPIQANQCNTRATAFIKITV
modifications: plus 14 C-terminal amino acids

Assays:
[1] = molecular target: whole (N) 5HT2C receptor (Mus musculus, UniProt Q02152); test: biochemical; format: binding; conditions: for order of efficacy of displacement / competition: displacement of [^125 I]DOI
Chain of whole (N) 5HT2C receptor (Q02152 whole entry S167T/A227V/S449C, the tested form may be a part): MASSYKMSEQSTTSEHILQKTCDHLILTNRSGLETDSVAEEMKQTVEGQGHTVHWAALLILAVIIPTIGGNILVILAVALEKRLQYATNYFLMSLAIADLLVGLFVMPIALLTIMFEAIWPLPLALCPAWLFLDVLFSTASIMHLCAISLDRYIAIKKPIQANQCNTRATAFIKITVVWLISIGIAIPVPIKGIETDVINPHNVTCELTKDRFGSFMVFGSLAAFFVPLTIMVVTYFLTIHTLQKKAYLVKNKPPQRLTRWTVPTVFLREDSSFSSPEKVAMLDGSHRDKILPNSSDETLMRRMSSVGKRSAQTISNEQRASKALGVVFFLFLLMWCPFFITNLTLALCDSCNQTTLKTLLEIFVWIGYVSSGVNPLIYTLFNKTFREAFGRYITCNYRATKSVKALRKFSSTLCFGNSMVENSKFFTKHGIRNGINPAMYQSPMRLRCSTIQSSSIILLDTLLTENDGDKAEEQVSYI

[2] = molecular target: T1, truncated (T) 5HT2C receptor; test: biochemical; format: binding
[3] = molecular target: 5-HT2 (Homo sapiens, UniProt P28223); test: binding to 5-HT2 (Table 1 comparison)
Chain of 5-HT2 (P28223 whole entry, species assumed): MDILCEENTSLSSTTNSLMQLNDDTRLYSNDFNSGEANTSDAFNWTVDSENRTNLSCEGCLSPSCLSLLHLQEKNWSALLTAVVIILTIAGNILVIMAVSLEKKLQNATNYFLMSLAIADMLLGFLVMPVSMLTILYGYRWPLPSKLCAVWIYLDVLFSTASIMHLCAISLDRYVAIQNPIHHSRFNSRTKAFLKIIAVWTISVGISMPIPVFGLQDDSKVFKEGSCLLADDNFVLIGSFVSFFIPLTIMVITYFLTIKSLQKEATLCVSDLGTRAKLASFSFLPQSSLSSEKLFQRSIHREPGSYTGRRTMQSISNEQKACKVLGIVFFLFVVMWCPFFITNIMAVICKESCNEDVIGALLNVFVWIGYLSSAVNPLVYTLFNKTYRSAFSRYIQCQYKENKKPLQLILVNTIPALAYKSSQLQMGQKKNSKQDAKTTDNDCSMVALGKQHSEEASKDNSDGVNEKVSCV

[4] = molecular target: T2, 5-HT1C; test: biochemical; format: binding
[5] = system: coronary arteries; conditions: human coronary atherosclerosis; Golino et al.; cited from earlier work
[6] = molecular target: T3, 5HT2C receptor (Mus musculus, UniProt Q02152); test: saturation binding of [^125 I]DOI to membranes of Cos-7 cells expressing the 5HT2C receptor
T3 construct: expressed in transfected cells; host or cells: Cos-7
T3 sequence (Q02152 whole entry S167T/A227V/S449C): as the sequence (Q02152 whole entry S167T/A227V/S449C, the tested form may be a part) above
Method: FIG. 1 Scatchard curve of the results of experiments for the binding, at saturation, of [^125 I]DOI to the membranes of Cos-7 cells expressing the 5HT2C receptor.
The cDNA fragment isolated in Example 1 was inserted into an eukaryotic expression vector, which was used to transfect Cos-7 cells. The membranes of the transfected cells obtained were then prepared and tested for their capacity to bind certain labelled serotoninergic ligands.
The cDNA encoding the 5HT2C receptor was isolated in the form of a 1372 pb XbaI-EcoRI fragment and then inserted at the corresponding sites of the vector p513. The vector p513 is derived from the vector pSG5 [Green et al., Nucl. Acids Res. 16 (1988) 369] by addition of a multiple cloning site. The recombinant vector thus obtained, designated p513NP75, was then used (10 μg per 10 cm dish) to transfect the Cos-7 cells in the presence of calcium phosphate.
48 Hours after transfection, the recombinant cells are harvested and the membranes are prepared according to the technique described by Amlaiky and Caron [J. Biol. Chem. 260 (1985) 1983].
Saturation binding and competition experiments were then carried out on these membranes in the presence of [^125 I]DOI (2200 Ci/mmol; New England Nuclear) and various test compounds.
(§1) The [^125 I]DOI (dimethoxyphenyl isopropylamine) was first used alone, in order to detect the expression of the gene encoding the receptors of the invention in the membranes of the recombinant cells. For this purpose, 100 μl of membrane suspension ([…]) of proteins) were incubated for 30 minutes at 30° C. in the presence of the radioactive ligand (50 μl) and 50 μl of 50 mM Tris-HCl buffer (pH 7.4), 150 mM NaCl, 10 mm MgCl2, final volume: 200 μl. The reaction is then stopped by addition of an isoosmotic ice-cold solution, then by filtration on Whatman GF/B filters, followed by 4 rinses in 5 ml of the above ice-cold buffer. The filters are then dried and the radioactivity is measured by counting (γ counter). Non-specific binding, determined in the presence of 10 μM of cold DOI, represented about 30% of the total binding.

[7] = system: membranes of the control cells (transfected with plasmid pSG5); test: [^125 I]DOI binding to membranes of control cells (transfected with plasmid pSG5)
Method: as §1
These cells therefore indeed express a functional serotonin receptor.

[8] = system: translation of the intracellular signal; test: translation of the intracellular signal by the truncated receptor; format: cell-based, mouse; conditions: truncated protein
Description: The physiological role of this form of the receptor remains unknown, but it seems likely that it serves to protect certain sensitive targets, such as the vascular endothelium, from harmful stimulations by locally "diluting" the effect of the ligand, in this case serotonin.

[9] = [^125 I]DOI displacement, Cos-7 membranes, whole receptor, at least three experiments in triplicate, read-out: pKD, binding to the COS N cells (converted)
[10] = [^125 I]DOI displacement, COS membranes, truncated receptor, at least three experiments in triplicate, read-out: pKD, binding to the COS T (converted)
[11] = Table 1 comparison column, source of values not stated

| Molecule | Kd [1, 9] | order of efficacy of displacement ([1]; whole receptor) | Kd [2, 10] | Kd [3] | Kd [1] | Kd [4] | further results |
| --- | --- | --- | --- | --- | --- | --- | --- |
| Cc1nc2n(c(=O)c1CCN1CCC(C(=O)c3ccc(F)cc3)CC1)CCS2 [Setoperone] | 24.5 nM | ritanserin>N-acetyl 5-HT>methysergide>setoperone=cyproheptadine>spiperone>ketanserin>tryptamine>5-HT >8-OH-DPAT | > 100000 nM | 2.51 nM | – | – | Kd [4, 11]: 50.1 nM |
| CN1[C@@H]2CC[C@H]1C[C@@H](OC(=O)c1cc(Cl)cc(Cl)c1)C2 [MDL 72222] | 24000 nM | – | > 100000 nM | 200 nM | – | – | competition ([1]; whole receptor): absence of competition; Kd [4, 11]: > 10000 nM |
| Cc1[nH]c2ccc(O)cc2c1CCN [2-Me-5-HT] | – | – | > 100000 nM | – | 6610 nM | 1580 nM | Kd [3, 11]: 6310 nM |
| O=C(CCCN1CCC2(CC1)C(=O)NCN2c1ccccc1)c1ccc(F)cc1 [Spiperone] | 50.1 nM | ritanserin>N-acetyl 5-HT>methysergide>setoperone=cyproheptadine>spiperone>ketanserin>tryptamine>5-HT >8-OH-DPAT | > 100000 nM | – | – | – | Kd [4, 11]: 1260 nM |
| CC(=O)NCCc1c[nH]c2ccc(O)cc12 [N-Acetyl-5-HT] | – | ritanserin>N-acetyl 5-HT>methysergide>setoperone=cyproheptadine>spiperone>ketanserin>tryptamine>5-HT >8-OH-DPAT | 200 nM | 3160 nM | 7.08 nM | 794 nM | – |
| CCCN(CCC)C1CCc2cccc(O)c2C1 (stereo not shown) [8-OH-DPAT] | – | ritanserin>N-acetyl 5-HT>methysergide>setoperone=cyproheptadine>spiperone>ketanserin>tryptamine>5-HT >8-OH-DPAT | > 100000 nM | 10000 nM | 6460 nM | – | – |
| Cn1cc(CCN)c2cc(O)ccc21 [1-ME-5-HT] | – | – | 60300 nM | – | 2510 nM | 3.98 nM | Kd [3, 11]: 501 nM |
| COc1ccc2[nH]cc(CCN(C)C)c2c1 [NNdiMe-5-MeOT] | – | – | 45700 nM | – | 7410 nM | – | – |
| CN(C)CCCN1c2ccccc2Sc2ccc(Cl)cc21 [Chlorpromazine] | > 100000 nM | – | > 100000 nM | – | – | – | – |
| NCCc1c[nH]c2ccccc12 [Tryptamine] | – | ritanserin>N-acetyl 5-HT>methysergide>setoperone=cyproheptadine>spiperone>ketanserin>tryptamine>5-HT >8-OH-DPAT | 14500 nM | – | 200 nM | 63.1 nM | – |
| Cc1nc2sccn2c(=O)c1CCN1CCC(=C(c2ccc(F)cc2)c2ccc(F)cc2)CC1 [Ritanserin] | – | ritanserin>N-acetyl 5-HT>methysergide>setoperone=cyproheptadine>spiperone>ketanserin>tryptamine>5-HT >8-OH-DPAT | – | – | – | 2.51 nM | – |
| NCCc1c[nH]cn1 [Histamine] | > 100000 nM | – | > 100000 nM | > 100000 nM | – | – | Kd [4, 11]: > 100000 nM |
| c1ccc2nc(N3CCNCC3)ccc2c1 [Quipazine] | 6610 nM | – | 14100 nM | 631 nM | – | 200 nM | competition ([1]; whole receptor): absence of competition |
| O=C(c1ccc(F)cc1)C1CCN(CCn2c(=O)[nH]c3ccccc3c2=O)CC1 [Ketanserin] | 204 nM | ritanserin>N-acetyl 5-HT>methysergide>setoperone=cyproheptadine>spiperone>ketanserin>tryptamine>5-HT >8-OH-DPAT | – | – | – | – | Kd [2]: > 100000 nM; increased sensitivity to serotonin of the contraction of the coronary arteries [5]: can be reduced by ketanserin |
| CC[C@@H](CO)NC(=O)[C@@H]1C=C2c3cccc4c3c(cn4C)C[C@H]2N(C)C1 [Methysergide] | – | ritanserin>N-acetyl 5-HT>methysergide>setoperone=cyproheptadine>spiperone>ketanserin>tryptamine>5-HT >8-OH-DPAT | – | – | 12.6 nM | 2.51 nM | – |
| CN1CCC(=C2c3ccccc3C=Cc3ccccc32)CC1 [Cyproheptadine] | – | – | – | – | – | – | Kd [4, 11]: 12.6 nM |
| CN1C2CCC1CC(OC(=O)c1c[nH]c3ccccc13)C2 (stereo not shown) [ICS 205-930] | – | – | > 100000 nM | – | – | 25100 nM | competition ([1]; whole receptor): absence of competition |
| COc1cc(CC(C)N)c(OC)cc1I (stereo not shown) [DOI, dimethoxyphenyl isopropylamine] | – | – | – | – | – | – | specific binding to the membranes of the transfected cells ([6]; [^125 I]DOI): binds specifically to the membranes of the transfected cells; Kd ([6]; [^125 I]DOI saturation binding, 30 minutes at 30° C., pH 7.4, read-out: apparent KD): 25.8 ± 0.54 nM; affinity for the transfected cells ([6]; [^125 I]DOI saturation binding, FIG. 1): high and the binding is saturable; non-specific binding (of the total binding) ([6]; in the presence of 10 μM of cold DOI): about 30%; binding to membranes of the control cells [7]: not to the membranes of the control cells |
| B1 | – | – | – | – | – | – | translation of the intracellular signal [8]: completely abolished |
